# Counter-ions that a name gives are not always drawn.
# Experiments:
# [1] = system: COR-L279; assay: SANGER: Inhibition of human COR-L279 cell growth in a cell viability assay.; type: functional, cell-based
# [2] = system: CP50-MEL-B; assay: cells; type: functional, cell-based, Homo sapiens;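 note: growth inhibition of the human cell line, measured with a cell viability read-out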
# Description: SANGER: Inhibition of human CP50-MEL-B cell growth in a cell viability assay.
# [3] = system: D-392MG; assay: cells; type: functional, cell-based, Homo sapiens
# [4] = system: ES7; assay: cells; type: functional, cell-based, Homo sapiens;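 note: growth inhibition of cultured human ES7 cells, read out as cell viability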
# Description: SANGER: Inhibition of human ES7 cell growth in a cell viability assay.
# [5] = system: EW-13; assay: cells; type: functional, cell-based, Homo sapiens;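 note: growth inhibition of EW-13 cells, read out with a cell viability assay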
# Description: SANGER: Inhibition of human EW-13 cell growth in a cell viability assay.
# [6] = system: HCE-4; assay: cells; type: functional, cell-based, Homo sapiens;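 note: cell viability assay measuring inhibition of growth in the human HCE-4 cell line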
# Description: SANGER: Inhibition of human HCE-4 cell growth in a cell viability assay.
# [7] = system: HuP-T4; assay: cells; type: functional, cell-based, Homo sapiens;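 note: cell viability assay measuring how much HuP-T4 cell growth is inhibited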
# Description: SANGER: Inhibition of human HuP-T4 cell growth in a cell viability assay.
# [8] = system: KALS-1; assay: cells; type: functional, cell-based, Homo sapiens;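 note: growth inhibition of KALS-1 cells, determined with a cell viability assay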
# Description: SANGER: Inhibition of human KALS-1 cell growth in a cell viability assay.
# [9] = system: KG-1; assay: cells; type: functional, cell-based, Homo sapiens;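 note: growth inhibition of KG-1 cells, read out by a cell viability assay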
# Description: SANGER: Inhibition of human KG-1 cell growth in a cell viability assay.
# [10] = system: KINGS-1; assay: cells; type: functional, cell-based, Homo sapiens;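 note: cell viability assay measuring suppression of KINGS-1 cell growth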
# Description: SANGER: Inhibition of human KINGS-1 cell growth in a cell viability assay.
# [11] = system: KYSE-270; assay: cells; type: functional, cell-based, Homo sapiens;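 note: cell growth inhibition measured with a viability assay in the human KYSE-270 line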
# Description: SANGER: Inhibition of human KYSE-270 cell growth in a cell viability assay.
# [12] = system: L-363; assay: cells; type: functional, cell-based, Homo sapiens
# Description: SANGER: Inhibition of human L-363 cell growth in a cell viability assay.
# [13] = system: LB1047-RCC; assay: cells; type: functional, cell-based, Homo sapiens
# Description: SANGER: Inhibition of human LB1047-RCC cell growth in a cell viability assay.
# [14] = system: LB771-HNC; assay: cells; type: functional, cell-based, Homo sapiens;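 note: growth inhibition of LB771-HNC human cells, read out with a cell viability assay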
# Description: SANGER: Inhibition of human LB771-HNC cell growth in a cell viability assay.
# [15] = system: LOUCY; assay: cells; type: functional, cell-based, Homo sapiens;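 note: growth inhibition of human LOUCY cells, read out with a cell viability assay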
# Description: SANGER: Inhibition of human LOUCY cell growth in a cell viability assay.
# [16] = system: M14; assay: cells; type: functional, cell-based, Homo sapiens;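 note: growth inhibition of M14 cells, read out with a cell viability assay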
# Description: SANGER: Inhibition of human M14 cell growth in a cell viability assay.
# [17] = system: MC116; assay: cells; type: functional, cell-based, Homo sapiens;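 note: growth inhibition of MC116 cells, read out with a cell viability assay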
# Description: SANGER: Inhibition of human MC116 cell growth in a cell viability assay.
# [18] = system: MG-63; assay: cells; type: functional, cell-based, Homo sapiens;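 note: growth inhibition of human MG-63 cells, read out with a cell viability assay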
# Description: SANGER: Inhibition of human MG-63 cell growth in a cell viability assay.
# [19] = system: NCCIT; assay: SANGER: Inhibition of human NCCIT cell growth in a cell viability assay.; type: functional, cell-based
# [20] = system: NCI-H1623; assay: cells; type: functional, cell-based, Homo sapiens;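 note: cell viability assay used as the read-out for growth inhibition of NCI-H1623 cells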
# Description: SANGER: Inhibition of human NCI-H1623 cell growth in a cell viability assay.
# [21] = system: NCI-H2122; assay: cells; type: functional, cell-based, Homo sapiens;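 note: growth inhibition of the cells, read out with a cell viability assay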
# Description: SANGER: Inhibition of human NCI-H2122 cell growth in a cell viability assay.
# [22] = system: NCI-H2170; assay: cells; type: functional, cell-based, Homo sapiens;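 note: cell viability assay measuring growth inhibition of human NCI-H2170 cancer cells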
# Description: SANGER: Inhibition of human NCI-H2170 cell growth in a cell viability assay.
# [23] = system: NCI-H358; assay: cells; type: functional, cell-based, Homo sapiens;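 note: growth inhibition of NCI-H358 human cells, read out with a cell viability assay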
# Description: SANGER: Inhibition of human NCI-H358 cell growth in a cell viability assay.
# [24] = system: NCI-H441; assay: cells; type: functional, cell-based, Homo sapiens;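 note: growth inhibition of NCI-H441 cells, read out with a cell viability assay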
# Description: SANGER: Inhibition of human NCI-H441 cell growth in a cell viability assay.
# [25] = system: NCI-H719; assay: cells; type: functional, cell-based, Homo sapiens;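 note: growth inhibition of the cultured cell line, read out with a viability assay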
# Description: SANGER: Inhibition of human NCI-H719 cell growth in a cell viability assay.
# [26] = system: SNU-5; assay: cells; type: functional, cell-based, Homo sapiens;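 note: cell viability readout used to measure growth inhibition in human NCI-SNU-5 cells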
# Description: SANGER: Inhibition of human NCI-SNU-5 cell growth in a cell viability assay.
# [27] = system: P12-Ichikawa; assay: cells; type: functional, cell-based, Homo sapiens
# [28] = system: RVH-421; assay: cells; type: functional, cell-based, Homo sapiens
# Description: SANGER: Inhibition of human RVH-421 cell growth in a cell viability assay.
# [29] = system: SCC-3; assay: cells; type: functional, cell-based, Homo sapiens;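 note: cell viability assay measuring inhibition of SCC-3 cell growth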
# Description: SANGER: Inhibition of human SCC-3 cell growth in a cell viability assay.
# [30] = system: SK-HEP1; assay: cells; type: functional, cell-based, Homo sapiens, SK-HEP-1;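 note: cell viability readout used to quantify reduction in proliferation of human SK-HEP-1 cells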
# Description: SANGER: Inhibition of human SK-HEP-1 cell growth in a cell viability assay.
# [31] = system: SK-MEL-30; assay: cells; type: functional, cell-based, Homo sapiens;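 note: growth inhibition of SK-MEL-30 cells, determined with a cell viability assay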
# Description: SANGER: Inhibition of human SK-MEL-30 cell growth in a cell viability assay.
# [32] = system: SK-N-DZ; assay: cells; type: functional, cell-based, Homo sapiens;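 note: growth inhibition of the cancer cell line, read out through a viability assay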
# Description: SANGER: Inhibition of human SK-N-DZ cell growth in a cell viability assay.
# [33] = system: SK-PN-DW; assay: cells; type: functional, cell-based, Homo sapiens;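 note: growth inhibition measured with a viability assay on these cells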
# Description: SANGER: Inhibition of human SK-PN-DW cell growth in a cell viability assay.
# [34] = system: SNB-75; assay: cells; type: functional, cell-based, Homo sapiens;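 note: cell viability assay measuring growth inhibition of human SNB-75 cells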
# Description: SANGER: Inhibition of human SNB75 cell growth in a cell viability assay.
# [35] = system: SNU-423; assay: cells; type: functional, cell-based, Homo sapiens
# Description: SANGER: Inhibition of human SNU-423 cell growth in a cell viability assay.
# [36] = system: SW1463; assay: cells; type: functional, cell-based, Homo sapiens;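 note: growth inhibition of SW1463 cells, determined with a cell viability assay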
# Description: SANGER: Inhibition of human SW1463 cell growth in a cell viability assay.
# [37] = system: A204; assay: cells; type: functional, cell-based, Homo sapiens;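 note: growth inhibition of human A204 cells, read out with a cell viability assay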
# Description: SANGER: Inhibition of human A204 cell growth in a cell viability assay.
# [38] = system: ACHN; assay: cells; type: functional, cell-based, Homo sapiens;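 note: cell viability read-out used to gauge how strongly growth of human ACHN cells is suppressed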
# Description: SANGER: Inhibition of human ACHN cell growth in a cell viability assay.
# [39] = system: BCPAP; assay: cells; type: functional, cell-based, Homo sapiens;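 note: growth inhibition of BCPAP cells, read out in a cell viability assay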
# Description: SANGER: Inhibition of human BCPAP cell growth in a cell viability assay.
# [40] = system: BFTC-909; assay: cells; type: functional, cell-based, Homo sapiens
# Description: SANGER: Inhibition of human BFTC-909 cell growth in a cell viability assay.
# [41] = system: BL-41; assay: cells; type: functional, cell-based, Homo sapiens;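 note: growth inhibition of human BL-41 cells, read out with a cell viability assay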
# Description: SANGER: Inhibition of human BL-41 cell growth in a cell viability assay.
# [42] = system: C8166; assay: cells; type: functional, cell-based, Homo sapiens;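 note: growth inhibition of human C8166 cells measured by a cell viability assay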
# Description: SANGER: Inhibition of human C8166 cell growth in a cell viability assay.
# [43] = system: CAL-33; assay: cells; type: functional, cell-based, Homo sapiens;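 note: growth inhibition of CAL-33 cells, read out with a cell viability assay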
# Description: SANGER: Inhibition of human CAL-33 cell growth in a cell viability assay.
# [44] = system: UACC-62; assay: cells; type: functional, cell-based, Homo sapiens;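 note: growth inhibition of human UACC-62 cells, read out by a cell viability assay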
# Description: SANGER: Inhibition of human UACC-62 cell growth in a cell viability assay.
# [45] = system: CESS; assay: SANGER: Inhibition of human CESS cell growth in a cell viability assay.; type: functional, cell-based
# [46] = system: COLO-678; assay: cells; type: functional, cell-based, Homo sapiens
# Description: SANGER: Inhibition of human COLO-678 cell growth in a cell viability assay.
# [47] = system: NB7; assay: cells; type: functional, cell-based, Homo sapiens; conditions: Homo sapiens, NB7;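 note: growth inhibition of NB7 cells, read out with a cell viability assay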
# Description: SANGER: Inhibition of human NB7 cell growth in a cell viability assay.
# [48] = system: A549; assay: cells; type: functional, cell-based, Homo sapiens; conditions: Homo sapiens, A549;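 note: growth inhibition of A549 cells, read out with a cell viability assay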
# Description: SANGER: Inhibition of human A549 cell growth in a cell viability assay.
compound,measurement,setting,value
COC1=CC(c2cc3ccccc3[nH]2)=N/C1=C\c1[nH]c(C)cc1C [OBATOCLAX MESYLATE],IC50,"[1]; Homo sapiens, COR-L279",0.572 µM
same,IC50,"[2]; Homo sapiens, CP50-MEL-B",0.0879 µM
same,IC50,"[3]; Homo sapiens, D-392MG",1.6 µM
same,IC50,"[4]; Homo sapiens, ES7",< 0.0625 µM
same,IC50,"[5]; Homo sapiens, EW-13",0.0441 µM
same,IC50,"[6]; Homo sapiens, HCE-4",0.203 µM
same,IC50,"[7]; Homo sapiens, HuP-T4",0.0412 µM
same,IC50,"[8]; Homo sapiens, KALS-1",0.6 µM
same,IC50,"[9]; Homo sapiens, KG-1",0.334 µM
same,IC50,"[10]; Homo sapiens, KINGS-1",0.826 µM
same,IC50,"[11]; Homo sapiens, KYSE-270",0.0298 µM
same,IC50,"[12]; Homo sapiens, L-363",0.0468 µM
same,IC50,"[13]; Homo sapiens, LB1047-RCC",0.358 µM
same,IC50,"[14]; Homo sapiens, LB771-HNC",0.103 µM
same,IC50,"[15]; Homo sapiens, LOUCY",< 0.0625 µM
same,IC50,"[16]; Homo sapiens, M14",0.46 µM
same,IC50,"[17]; Homo sapiens, MC116",0.113 µM
same,IC50,"[18]; Homo sapiens, MG-63",0.214 µM
same,IC50,"[19]; Homo sapiens, NCCIT",1.38 µM
same,IC50,"[20]; Homo sapiens, NCI-H1623",3.09 µM
same,IC50,"[21]; Homo sapiens, NCI-H2122",0.0938 µM
same,IC50,"[22]; Homo sapiens, NCI-H2170",0.683 µM
same,IC50,"[23]; Homo sapiens, NCI-H358",0.0788 µM
same,IC50,"[24]; Homo sapiens, NCI-H441",0.191 µM
same,IC50,"[25]; Homo sapiens, NCI-H719",4.15 µM
same,IC50,"[26]; Homo sapiens, SNU-5",0.856 µM
same,IC50,"[27]; Homo sapiens, P12-Ichikawa",0.0735 µM
same,IC50,"[28]; Homo sapiens, RVH-421",0.0167 µM
same,IC50,"[29]; Homo sapiens, SCC-3",0.446 µM
same,IC50,"[30]; Homo sapiens, SK-HEP1",0.196 µM
same,IC50,"[31]; Homo sapiens, SK-MEL-30",< 0.0625 µM
same,IC50,"[32]; Homo sapiens, SK-N-DZ",0.859 µM
same,IC50,"[33]; Homo sapiens, SK-PN-DW",0.0573 µM
same,IC50,"[34]; Homo sapiens, SNB-75",0.557 µM
same,IC50,"[35]; Homo sapiens, SNU-423",0.129 µM
same,IC50,"[36]; Homo sapiens, SW1463",1.32 µM
same,IC50,"[37]; Homo sapiens, A204",1.6 µM
same,IC50,"[38]; Homo sapiens, ACHN",0.132 µM
same,IC50,"[39]; Homo sapiens, BCPAP",0.0589 µM
same,IC50,"[40]; Homo sapiens, BFTC-909",0.453 µM
same,IC50,"[41]; Homo sapiens, BL-41",0.0622 µM
same,IC50,"[42]; Homo sapiens, C8166",0.474 µM
same,IC50,"[43]; Homo sapiens, CAL-33",0.508 µM
same,IC50,"[44]; Homo sapiens, UACC-62",0.302 µM
same,IC50,"[45]; Homo sapiens, CESS",0.0827 µM
same,IC50,"[46]; Homo sapiens, COLO-678",3.38 µM
Cn1cnc2c(F)c(Nc3ccc(Br)cc3Cl)c(C(=O)NOCCO)cc21 [SELUMETINIB],IC50,"[2]; Homo sapiens, CP50-MEL-B",0.128 µM
same,IC50,"[3]; Homo sapiens, D-392MG",> 4 µM
same,IC50,"[4]; Homo sapiens, ES7",> 4 µM
same,IC50,"[5]; Homo sapiens, EW-13",> 4 µM
same,IC50,"[6]; Homo sapiens, HCE-4",> 4 µM
same,IC50,"[7]; Homo sapiens, HuP-T4",0.195 µM
same,IC50,"[9]; Homo sapiens, KG-1",0.895 µM
same,IC50,"[10]; Homo sapiens, KINGS-1",> 4 µM
same,IC50,"[11]; Homo sapiens, KYSE-270",> 4 µM
same,IC50,"[12]; Homo sapiens, L-363",> 4 µM
same,IC50,"[13]; Homo sapiens, LB1047-RCC",> 4 µM
same,IC50,"[14]; Homo sapiens, LB771-HNC",> 4 µM
same,IC50,"[16]; Homo sapiens, M14",0.0369 µM
same,IC50,"[17]; Homo sapiens, MC116",> 4 µM
same,IC50,"[18]; Homo sapiens, MG-63",> 4 µM
same,IC50,[47],> 4 µM
same,IC50,"[20]; Homo sapiens, NCI-H1623",> 4 µM
same,IC50,"[21]; Homo sapiens, NCI-H2122",> 4 µM
same,IC50,"[22]; Homo sapiens, NCI-H2170",> 4 µM
same,IC50,"[24]; Homo sapiens, NCI-H441",> 4 µM
same,IC50,"[26]; Homo sapiens, SNU-5",3.61 µM
same,IC50,"[27]; Homo sapiens, P12-Ichikawa",1.16 µM
same,IC50,"[28]; Homo sapiens, RVH-421",0.279 µM
same,IC50,"[30]; Homo sapiens, SK-HEP1",2.29 µM
same,IC50,"[31]; Homo sapiens, SK-MEL-30",0.782 µM
same,IC50,"[32]; Homo sapiens, SK-N-DZ",> 4 µM
same,IC50,"[33]; Homo sapiens, SK-PN-DW",> 4 µM
same,IC50,"[34]; Homo sapiens, SNB-75",> 4 µM
same,IC50,"[35]; Homo sapiens, SNU-423",> 4 µM
same,IC50,"[36]; Homo sapiens, SW1463",> 4 µM
same,IC50,"[37]; Homo sapiens, A204",1.52 µM
same,IC50,[48],0.214 µM
same,IC50,"[39]; Homo sapiens, BCPAP",2.13 µM
same,IC50,"[40]; Homo sapiens, BFTC-909",> 4 µM
same,IC50,"[42]; Homo sapiens, C8166",> 4 µM
same,IC50,"[43]; Homo sapiens, CAL-33",1.55 µM
same,IC50,"[44]; Homo sapiens, UACC-62",> 4 µM
same,IC50,"[46]; Homo sapiens, COLO-678",1.62 µM
BLEOMYCIN,IC50,[1]; cor-l279,25.4 µM
same,IC50,[2]; cp50-mel-b,3950 µM
same,IC50,[3]; d-392mg,13.6 µM
same,IC50,[4]; es7,0.378 µM
same,IC50,[5]; ew-13,0.292 µM
same,IC50,[6]; hce-4,0.453 µM
same,IC50,[7]; hup-t4,1.31 µM
same,IC50,[8]; kals-1,11.7 µM
same,IC50,[9]; kg-1,0.131 µM
same,IC50,[10]; kings-1,1270 µM
same,IC50,[11]; kyse-270,0.717 µM
same,IC50,[12]; l-363,187 µM
same,IC50,[13]; lb1047-rcc,0.0325 µM
same,IC50,[14]; lb771-hnc,209 µM
same,IC50,[15]; loucy,0.00993 µM
same,IC50,[16]; m14,3.22 µM
same,IC50,[17]; mc116,2.11 µM
same,IC50,[18]; mg-63,1.49 µM
same,IC50,[19]; nccit,1.07 µM
same,IC50,[20]; nci-h1623,39 µM
same,IC50,[21]; nci-h2122,0.51 µM
same,IC50,[22]; nci-h2170,0.162 µM
same,IC50,[23]; nci-h358,0.373 µM
same,IC50,[24]; nci-h441,9.05 µM
same,IC50,[25]; nci-h719,293 µM
same,IC50,[26]; snu-5,0.643 µM
same,IC50,[27]; p12-ichikawa,5.55 µM
same,IC50,[28]; rvh-421,2.57 µM
same,IC50,[29]; scc-3,3.21 µM
same,IC50,[30]; sk-hep-1,0.415 µM
same,IC50,[31]; sk-mel-30,0.377 µM
same,IC50,[32]; sk-n-dz,170 µM
same,IC50,[33]; sk-pn-dw,1.45 µM
same,IC50,[34]; snb-75,1.61 µM
same,IC50,[35]; snu-423,0.867 µM
same,IC50,[36]; sw1463,23.4 µM
same,IC50,[37]; a204,0.2 µM
same,IC50,[38]; achn,0.375 µM
same,IC50,[39]; bcpap,1.44 µM
same,IC50,[40]; bftc-909,0.0138 µM
same,IC50,[41]; bl-41,14.2 µM
same,IC50,[42]; c8166,7.77 µM
same,IC50,[43]; cal-33,2.15 µM
same,IC50,[44]; uacc-62,188 µM
same,IC50,[45]; cess,0.000546 µM
same,IC50,[46]; colo-678,36.2 µM

# Source: ChEMBL document CHEMBL1201861, “Genomics of Drug Sensitity in Cancer screening data, Wellcome Trust Sanger Institute”
